The values below come from ChEMBL document CHEMBL1146737, “Discovery of a potent and selective alpha v beta 3 integrin antagonist with strong inhibitory activity against neointima formation in rat balloon injury model” (Bioorg Med Chem Lett, 2004).

In test [1] the target is Integrin alpha-V/beta-3 and alpha-IIb/beta 3 (Homo sapiens) (UniProt P05106+P06756+P08514). Put plainly: Ratio of inhibitory activity against human alpha V beta-3 integrin to that of alpha IIb beta-3 integrin. It is filed as protein assay.
The next test is filed under the species Homo sapiens. Put plainly: Inhibition of human vascular smooth muscle proliferation was determined. It is filed as functional. The conditions noted are these: Muscle tissue.
A further test has as its target Integrin alpha-V/beta-3 (Homo sapiens, UniProt P05106+P06756). The test is described as follows: Inhibitory activity was determined against human vitronectin receptor (alpha V beta 3). The format is protein-complex assay.
The target of test [2] is Integrin alpha-IIb/beta-3 (Homo sapiens, UniProt P05106+P08514). Put plainly: Inhibitory activity was determined against human alpha IIb beta3 integrin. The format is protein-complex assay.
The test system of test [3] is Rattus norvegicus. Put plainly: Ratio of Intima area to media area was tested by subcutaneous infusion of compound at a constant rate of 1.3 umol/rat/day. The format is functional.
Test [4] relates to Rattus norvegicus. Put plainly: Antistenoic effect infused subcutaneously at a constant rate of 1.3 umol/rat/day. The format is functional.
The test system of test [5] is Rattus norvegicus. The test is described as follows: Antistenoic effect infused subcutaneously at a constant rate of 0.43 umol/rat/day. It is filed as functional.
Test [6] relates to Rattus norvegicus. Put plainly: Antistenoic effect infused subcutaneously at a constant rate of 0.14 umol/rat/day. The format is functional.

“And” between values parts separate entries of the source, which are not always exact repeats. Identical values can stand only once.

Integrin alpha-IIb/beta-3, sequence (P05106 27-788 limits assumed): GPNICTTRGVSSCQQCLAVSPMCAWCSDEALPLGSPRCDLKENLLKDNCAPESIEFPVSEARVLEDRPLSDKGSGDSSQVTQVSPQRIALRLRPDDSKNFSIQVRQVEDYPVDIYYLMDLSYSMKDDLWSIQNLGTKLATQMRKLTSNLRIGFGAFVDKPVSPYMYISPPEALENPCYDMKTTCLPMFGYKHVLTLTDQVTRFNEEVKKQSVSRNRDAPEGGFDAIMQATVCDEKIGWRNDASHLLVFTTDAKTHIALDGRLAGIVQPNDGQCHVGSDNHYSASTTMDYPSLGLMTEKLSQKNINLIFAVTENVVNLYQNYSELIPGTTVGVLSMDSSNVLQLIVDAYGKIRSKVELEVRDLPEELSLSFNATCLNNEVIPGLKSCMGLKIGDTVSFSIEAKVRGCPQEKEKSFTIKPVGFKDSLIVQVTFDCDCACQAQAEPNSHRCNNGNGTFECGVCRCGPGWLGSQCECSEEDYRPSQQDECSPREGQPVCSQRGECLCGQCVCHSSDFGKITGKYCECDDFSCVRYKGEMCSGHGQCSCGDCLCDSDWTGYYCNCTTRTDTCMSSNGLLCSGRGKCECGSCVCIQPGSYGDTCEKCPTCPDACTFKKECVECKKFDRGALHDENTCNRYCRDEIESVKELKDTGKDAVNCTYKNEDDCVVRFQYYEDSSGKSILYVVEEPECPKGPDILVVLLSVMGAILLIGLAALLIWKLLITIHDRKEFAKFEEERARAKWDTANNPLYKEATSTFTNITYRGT
Integrin alpha-IIb/beta-3, sequence (P08514 32-887 limits assumed): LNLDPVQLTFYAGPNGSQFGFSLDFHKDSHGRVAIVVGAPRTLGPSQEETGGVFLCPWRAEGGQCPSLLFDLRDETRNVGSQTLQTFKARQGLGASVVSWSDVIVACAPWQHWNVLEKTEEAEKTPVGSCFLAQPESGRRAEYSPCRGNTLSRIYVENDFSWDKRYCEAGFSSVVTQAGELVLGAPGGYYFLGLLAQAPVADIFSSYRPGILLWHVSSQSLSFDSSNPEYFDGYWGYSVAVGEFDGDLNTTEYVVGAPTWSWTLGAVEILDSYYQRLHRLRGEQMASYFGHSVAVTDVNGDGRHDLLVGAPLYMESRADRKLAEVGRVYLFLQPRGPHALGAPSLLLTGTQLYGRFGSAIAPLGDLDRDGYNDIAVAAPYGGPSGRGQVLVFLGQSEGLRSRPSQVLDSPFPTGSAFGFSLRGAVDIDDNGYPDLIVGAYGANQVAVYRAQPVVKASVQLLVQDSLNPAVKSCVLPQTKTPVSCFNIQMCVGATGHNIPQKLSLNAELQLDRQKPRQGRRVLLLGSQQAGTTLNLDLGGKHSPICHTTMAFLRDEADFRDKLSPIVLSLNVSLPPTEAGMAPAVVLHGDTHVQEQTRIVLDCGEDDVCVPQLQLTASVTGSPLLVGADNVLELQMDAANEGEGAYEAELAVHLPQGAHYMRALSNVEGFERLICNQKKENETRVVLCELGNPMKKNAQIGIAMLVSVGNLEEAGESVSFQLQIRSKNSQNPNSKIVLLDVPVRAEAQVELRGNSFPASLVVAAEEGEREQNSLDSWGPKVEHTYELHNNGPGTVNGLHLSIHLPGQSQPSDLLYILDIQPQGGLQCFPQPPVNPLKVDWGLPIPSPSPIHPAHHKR
Integrin alpha-IIb/beta-3, sequence (P08514 891-1039 limits assumed): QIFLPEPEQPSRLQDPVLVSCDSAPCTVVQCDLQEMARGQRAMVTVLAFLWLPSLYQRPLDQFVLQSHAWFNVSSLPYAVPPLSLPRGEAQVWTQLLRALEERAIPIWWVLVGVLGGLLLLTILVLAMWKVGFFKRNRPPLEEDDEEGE
Integrin alpha-V/beta-3, sequence (P05106 27-788 limits assumed): as the sequence (P05106 27-788 limits assumed) above
Integrin alpha-V/beta-3, sequence (P06756 31-889 limits assumed): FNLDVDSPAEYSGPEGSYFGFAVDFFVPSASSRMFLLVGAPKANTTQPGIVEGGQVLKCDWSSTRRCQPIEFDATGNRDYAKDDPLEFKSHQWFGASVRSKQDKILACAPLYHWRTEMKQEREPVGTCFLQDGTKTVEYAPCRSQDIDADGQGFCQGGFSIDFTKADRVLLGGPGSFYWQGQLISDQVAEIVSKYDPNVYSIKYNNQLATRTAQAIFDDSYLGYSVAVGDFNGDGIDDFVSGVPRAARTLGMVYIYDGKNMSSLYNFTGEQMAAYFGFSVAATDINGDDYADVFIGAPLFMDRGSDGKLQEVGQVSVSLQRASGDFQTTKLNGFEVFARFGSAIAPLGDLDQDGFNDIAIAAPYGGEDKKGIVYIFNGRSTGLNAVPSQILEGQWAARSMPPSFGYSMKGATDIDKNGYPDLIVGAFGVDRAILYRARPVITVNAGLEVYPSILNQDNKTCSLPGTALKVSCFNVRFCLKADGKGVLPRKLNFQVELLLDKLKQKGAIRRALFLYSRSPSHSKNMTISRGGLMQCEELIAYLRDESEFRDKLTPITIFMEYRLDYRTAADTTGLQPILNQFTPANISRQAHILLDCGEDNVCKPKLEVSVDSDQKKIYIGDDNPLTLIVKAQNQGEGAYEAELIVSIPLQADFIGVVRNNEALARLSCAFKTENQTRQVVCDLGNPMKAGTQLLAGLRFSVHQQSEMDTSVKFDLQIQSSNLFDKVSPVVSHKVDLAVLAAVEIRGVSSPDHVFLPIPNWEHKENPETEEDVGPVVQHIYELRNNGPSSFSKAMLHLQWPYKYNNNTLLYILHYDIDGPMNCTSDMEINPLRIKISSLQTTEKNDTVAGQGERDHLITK
Integrin alpha-V/beta-3, sequence (P06756 891-1048 limits assumed): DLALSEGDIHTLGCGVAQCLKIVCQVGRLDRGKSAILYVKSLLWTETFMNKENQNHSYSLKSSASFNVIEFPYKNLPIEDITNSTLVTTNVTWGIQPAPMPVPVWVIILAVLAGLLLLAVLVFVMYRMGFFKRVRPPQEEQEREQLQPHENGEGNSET

Regarding `Cc1cc(C)c(S(=O)(=O)N[C@@H](CCC(=O)N2CCN(c3cccc(NC4=NCCCN4)c3)CC2)C(=O)O)c(C)c1`, the Ratio in test [1] is 140. Moreover, the IC50 in the test listed under Homo sapiens is above 10000 nM.
With `O=C(N[C@@H](CCC(=O)N1CCN(c2cccc(NC3=NCCCN3)c2)CC1)C(=O)O)OCc1ccccc1`, in test [1], the Ratio worked out at 11000. In addition, the IC50 in the test listed under Homo sapiens is 1100 nM; against Integrin alpha-V/beta-3 it was 0.058 nM; in test [2] it was 660 nM.
Turning to `O=C(Cc1ccccc1)N[C@@H](CCC(=O)N1CCN(c2cccc(NC3=NCCCN3)c2)CC1)C(=O)O`, the Ratio in test [1] is above 150. The concentration for half-maximal inhibition (IC50) in the test filed under Homo sapiens was above 10000 nM; in test [2] it was above 1000 nM.
In the same order, the values of `CCOC(=O)N[C@@H](CCC(=O)N1CCN(c2cccc(NC3=NCCCN3)c2)CC1)C(=O)O` are above 1700, 2100 nM and above 1000 nM.
In the same order, the values of `O=C(N[C@@H](CCC(=O)N1CCN(c2cccc(NC3=NCCCCN3)c2)CC1)C(=O)O)OCc1ccccc1` are above 18000, 1700 nM and above 1000 nM.
In the same order, the values of `O=C(NCc1ccccc1)N[C@@H](CCC(=O)N1CCN(c2cccc(NC3=NCCCN3)c2)CC1)C(=O)O` are above 710, above 10000 nM and above 1000 nM.
Take `O=C(N[C@@H](CCC(=O)N1CCN(c2cccc(NC3=NCC(O)CN3)c2)CC1)C(=O)O)OCc1ccccc1` (stereo partly specified): the Ratio in test [1] is 2300. Further, the half-inhibitory concentration (IC50) in the test filed under Homo sapiens was found to be 3500 nM.
`O=C(O)[C@H](CCC(=O)N1CCN(c2cccc(NC3=NCCCN3)c2)CC1)NS(=O)(=O)c1ccccc1`: the Ratio in test [1] was found to be 63. Also, the IC50 in the test listed under Homo sapiens was above 10000 nM; against Integrin alpha-V/beta-3, 1.4 nM; in test [2] it was 88 nM.
With `CC(C)COC(=O)N[C@@H](CCC(=O)N1CCN(c2cccc(NC3=NCC(O)CN3)c2)CC1)C(=O)O` (stereo partly specified), the Ratio in test [1] was above 33000. Also, the IC50 in the test listed under Homo sapiens was 2000 nM; in test [2], above 1000 nM.
With `CC(C)COC(=O)N[C@@H](CCC(=O)N1CCN(c2cccc(NC3=NCCCN3)c2)CC1)C(=O)O`, the Ratio in test [1] is above 3100. The IC50 in the test listed under Homo sapiens is 910 nM; in test [2], above 1000 nM.
For `CCNC(=O)N[C@@H](CCC(=O)N1CCN(c2cccc(NC3=NCCCN3)c2)CC1)C(=O)O`, the Ratio in test [1] is above 280. Besides, the figures for the IC50 (in the test listed under Homo sapiens; in test [2]) were above 10000 nM and above 1000 nM, respectively.
Turning to `O=C(N[C@@H](CCC(=O)N1CCN(c2cccc(NC3=NCC(F)CN3)c2)CC1)C(=O)O)OCc1ccccc1` (stereo partly specified), in the test with Rattus norvegicus [3], the intima/media ratio was found to be 0.76. In addition, in the test with Rattus norvegicus [4], the Inhibition is 38% and 34%; the Intima area is 113 10e3 um2 and 149 10e3 um2. Besides, the Ratio in test [1] was determined as 8600. The molecule also gave an IC50 in the test filed under Homo sapiens of 260 nM.
On to `CC(C)COC(=O)N[C@@H](CCC(=O)N1CCN(c2cccc(NC3=NCC(F)CN3)c2)CC1)C(=O)O` (stereo partly specified), for which, in the test with Rattus norvegicus [3], the intima/media ratio came out at 0.5. For the same molecule, the Inhibition with Rattus norvegicus [4] is 54% and 53%; in the test on Rattus norvegicus [5] it was 38%; in the test on Rattus norvegicus [6], 21%. In addition, in the test with Rattus norvegicus [4], the Intima area was 81 10e3 um2 and 162 10e3 um2. Also, the Ratio in test [1] is above 18000. In addition, the IC50 in the test filed under Homo sapiens was 180 nM; in test [2], above 1000 nM.
Regarding `O=C(N[C@@H](CCC(=O)N1CCN(c2cccc(NC3=NCCN3)c2)CC1)C(=O)O)OCc1ccccc1`, the Ratio in test [1] stood at 4500. The same molecule returned an IC50 in the test listed under Homo sapiens of 3000 nM.
As to `CC(C)COC(=O)N[C@@H](CCC(=O)N1CCN(c2cccc(NC3=NCC(C)(C)CN3)c2)CC1)C(=O)O`, the Ratio in test [1] is above 2600. The IC50 in the test filed under Homo sapiens was 3400 nM; in test [2], above 1000 nM.

The term IC50 denotes the concentration at which inhibition is half-maximal. As usually defined, the Inhibition is the change of the read-out against control, counted positive when it falls. Read a low Inhibition as a weak effect.
